Test results: patent US8410150B2, “Inhibitors of carnitine palmitoyltransferase and treating cancer” (University Health Network, priority 2007, dated 2013)
Read-outs that look alike come from different tables or passages of the source.

Columns and labels:
Caov-3 = test: Cell growth inhibition, SRB assay; assay type: cell-based, human; details: Homo sapiens; Ovarian Caov-3, 3% FBS
Experimental: (§1) Compounds were dissolved in DMSO and further diluted in cell culture medium for the experiments performed. Cells were seeded into 96-well plates with 1,500-5,000 cells/well according to cell growth rate. After 24 h, DMEM medium containing 10% FBS were changed to DMEM containing 3% FBS for cancer cells and additional 3% FBS were added into the culture medium for normal cells. The compound was added into the cell culture at the indicated concentrations, and the final concentration of DMSO was adjusted to a final concentration of 0.1%. Cells were subjected to either normoxic condition (20% O2) for 6 days or hypoxic condition (0.2% O2) for 2 days and then transferred to normoxic condition for 4 days. Cell viability was assessed by Sulforhodamine B (SRB) assay at Day 6.
(§2) Sulforhodamine B (SRB) (Sigma, Oakville, ON, Canada) is a water-soluble dye that binds to the basic amino acids of the cellular proteins. Thus, colorimetric measurement of the bound dye provides an estimate of the total protein mass that is related to the cell number. The cells were fixed in situ by gently aspirating off the culture media and adding 50 ul of cold 10% trichloroacetic Acid (TCA) per well and incubated at 4° C. for 30-60 min. The plates were washed five times with water and allowed to air dry for 5 min. 50 ul of 0.4% (w/v) SRB dissolved in 1% (v/v) acetic acid were added into each well, plates were then incubated at RT for 30 min for staining, washed four times with 1% acetic acid to remove any unbound dye and then allowed to air dry for 5 min. Stain was solubilized with 100 ul of 10 mM Tris pH 10.5 per well. Absorbance was read at 570 nm on a spectrophotometer. GI50 (compound concentration required for 50% of growth inhibition) was calculated using GraphPad Prism 4.0 software (GraphPad Software, Inc., San Diego, Calif., USA).
(§3) Cell viability of various cell lines treated with 3-carboxy-N,N,N-trimethyl-2-pentadecanamidopropan-1-aminium (“nPAC”) and compound of Examples S7, S63, S66, S90, S89, S67, S75 and S10 was also assessed in a manner as described above in Example 5.

MCF-7 = test: Cell growth inhibition, SRB assay; assay type: cell-based, human; details: Homo sapiens
Experimental: (§4) Human cancer cells (MCF-7, H358, H460, HCT116 p53^+/+, HCT116 p53^−/−, A172, PC-3, DU-145 and SW626) were maintained in DMEM medium containing 10% Fetal Bovine Serum (FBS) (Invitrogen, Burlington, ON, Canada) and normal cells HMEC, 184A1, NHBE and PrEC were cultured in MEGM, MEGM plus transferring and cholera toxin, BEGM and PrEGM supplemented with various growth factors (Cambrex, Charles city, IA, USA), respectively.
as §1, §2, §3

H358 = test: Cell growth inhibition, SRB assay; assay type: cell-based, human; details: Homo sapiens
Experimental: as §4, §1, §2, §3

SW626 = test: Cell growth inhibition, SRB assay; assay type: cell-based, human; details: Homo sapiens
Experimental: as §4, §1, §2, §3

A172 = test: Cell growth inhibition, SRB assay; assay type: cell-based, human; details: Homo sapiens
Experimental: as §4, §1, §2, §3

PC-3 = test: Cell growth inhibition, SRB assay; assay type: cell-based, human; details: Homo sapiens
Experimental: as §4, §1, §2, §3

MDA-231 = test: Cell growth inhibition, SRB assay; assay type: cell-based, human; details: Homo sapiens, MDA-MB-231; Breast MDA-231, 3% FBS
Experimental: as §1, §2, §3

[1] = test system: normal cells, including human mammary epithelial cell line 184A1 and human primary epithelial cells HMEC (mammary); NHBE (lung) and PrEC (prostate); test: Growth of normal cells, SRB assay; assay type: cell-based; details: 184A1, HMEC, SRB assay (FIG. 2B)
Experimental: as §4, §1
(§5) Sulforhodamine B (SRB) (Sigma, Oakville, ON, Canada) is a water-soluble dye that binds to the basic amino acids of the cellular proteins. […] Absorbance was read at 570 nm on a spectrophotometer. […]

HCT116 = test: Cell growth inhibition, SRB assay, normoxia and hypoxia; assay type: cell-based; details: Homo sapiens
Experimental: as §4, §1, §5

HCT116 p53−/− = test: Cell growth inhibition, SRB assay; assay type: cell-based; details: Homo sapiens, HCT-116, mean±SD of 2 experiments (FIG. 2)
Experimental: as §4, §1, §2

HCT116 p53+/+ = test: Cell growth inhibition, SRB assay; assay type: cell-based; details: Homo sapiens, HCT-116, mean±SD of 2 experiments (FIG. 2)
Experimental: as §4, §1, §2

DU-145 = test: Cell growth inhibition, SRB assay; assay type: cell-based; details: Homo sapiens, mean±SD of 2 experiments (FIG. 2)
Experimental: as §4, §1, §2

H460 = test: Cell growth inhibition, SRB assay; assay type: cell-based; details: Homo sapiens
Experimental: as §4, §1, §2

[2] = MCF7, Breast MCF-7, 3% FBS, read-out: GI50
[3] = NCI-H358, Lung H358, 3% FBS, read-out: GI50
[4] = Ovarian SW626, 3% FBS, read-out: GI50
[5] = A 172, Brain A172, 3% FBS, read-out: GI50
[6] = Prostate PC-3, 3% FBS, read-out: GI50
[7] = MCF7, 144 h, treated 6 days, SRB assay, mean±SD of 2 experiments (FIG. 1, 2), read-out: GI50 for MCF-7
[8] = NCI-H358, 144 h, treated 6 days, SRB assay, mean±SD of 2 experiments (FIG. 1, 2), read-out: GI50 for H358

Compound | GI50 (Caov-3) [nM] | GI50 (MCF-7; [2]) [nM] | GI50 (H358; [3]) [nM] | GI50 (SW626; [4]) [nM] | GI50 (A172; [5]) [nM] | GI50 (PC-3; [6]) [nM] | GI50 (MDA-231) [nM] | further results
CCCCCCCCCCCCc1ccc(NS(=O)(=O)N[C@H](CC(=O)O)C[N+](C)(C)C)cc1 [Example S89, (R)-3-(N-(4-dodecylphenyl)sulfamoylamino)-4-(trimethylammonio)-butanoate] | 1500 | 4200 | 1400 | 2300 | 4100 | 1600 | – | –
CCCCCCCCCCOc1cccc(C(=O)N[C@H](CC(=O)[O-])C[N+](C)(C)C)c1 [Example S67, (R)-3-(3-(decyloxy)benzamido)-4-(trimethylammonio)butanoate] | 800 | 700 | 700 | 2700 | 3600 | 1500 | – | –
CCCCCCCCCCc1ccc(C(=O)N[C@H](CC(=O)[O-])C[N+](C)(C)C)cc1 [Example S66, (R)-3-(4-decylbenzamido)-4-(trimethylammonio)butanoate] | – | 100 | 400 | 1500 | 1800 | 300 | 9400 | –
CCCCCCCCCCOc1ccc(C(=O)N[C@H](CC(=O)O)C[N+](C)(C)C)cc1 [Example S63, (R)-3-(4-(decyloxy)benzamido)-4-(trimethylammonio)butanoate 2,2,2-trifluoroacetate] | – | 400 | 400 | 1200 | 900 | 300 | 8500 | –
CCCCCCCOc1ccc(NC(=O)N[C@H](CC(=O)[O-])C[N+](C)(C)C)cc1 [Example S10, (R)-3-(3-(4-(heptyloxy)phenyl)ureido)-4-(trimethylammonio)butanoate] | 13000 | 44000 | 3400 | 15000 | 40000 | 5300 | > 50000 | GI50 (MCF-7; [7]): 1000 ± 100 nM; GI50 (H358; [8]): 4100 ± 1300 nM
CCCCCCCCCCCCCCc1ccc(NS(=O)(=O)N[C@H](CC(=O)O)C[N+](C)(C)C)cc1 [Example S90, (R)-3-(N-(4-tetradecylphenyl)sulfamoylamino)-4-(trimethylammonio)-butanoate] | 1600 | 4000 | 1100 | 3100 | 6600 | 1300 | – | –
CCCCCCCCc1ccc(NC(=O)N[C@H](CC(=O)[O-])C[N+](C)(C)C)cc1 [Example S7, (R)-3-(3-(4-octylphenyl)ureido)-4-(trimethylammonio)butanoate] | 1300 | 4500 | 500 | 800 | 3000 | 700 | 27000 | growth inhibition of normal cells [1]: inhibits growth of cancer cells but not normal cells; GI50 (MCF-7; MCF7, 144 h, MCF-7, normoxic condition (20% O2) for 6 days, read-out: GI50 Normoxi): 5300 ± 1300 nM; GI50 (MCF-7; [7]): 5000 ± 1300 nM; GI50 (MCF-7; MCF7, MCF-7, hypoxic condition (0.2% O2) for 2 days, then normoxic for 4 days, read-out: GI50 Hypoxia): 2500 ± 600 nM; GI50 (H358; [8]): 1000 ± 300 nM; GI50 (SW626; SW626, SRB assay, mean±SD of 2 experiments (FIG. 2), read-out: GI50 for SW626): 800 ± 700 nM; GI50 (A172; A 172, 144 h, A172, normoxic condition (20% O2) for 6 days, read-out: GI50 Normoxi): 3800 ± 500 nM; GI50 (A172; A 172, A172, hypoxic condition (0.2% O2) for 2 days, then normoxic for 4 days, read-out: GI50 Hypoxia): 1900 ± 800 nM; GI50 (A172; A 172, SRB assay, mean±SD of 2 experiments (FIG. 2), read-out: GI50 for A172): 3800 ± 500 nM; GI50 (PC-3; PC-3, SRB assay, mean±SD of 2 experiments (FIG. 2), read-out: GI50 for PC-3): 800 ± 300 nM; GI50 (HCT116; HCT-116, 144 h, normoxic condition (20% O2) for 6 days, read-out: GI50 Normoxi): 9300 ± 700 nM; GI50 (HCT116; HCT-116, hypoxic condition (0.2% O2) for 2 days, then normoxic for 4 days, read-out: GI50 Hypoxia): 5700 ± 600 nM; GI50 (HCT116 p53−/−): 13000 ± 800 nM; GI50 (HCT116 p53+/+): 9300 ± 1700 nM; GI50 (DU-145): 24000 ± 2800 nM; GI50 (H460; NCI-H460, 144 h, H460, normoxic condition (20% O2) for 6 days, read-out: GI50 Normoxi): 8800 ± 1200 nM; GI50 (H460; NCI-H460, H460, hypoxic condition (0.2% O2) for 2 days, then normoxic for 4 days, read-out: GI50 Hypoxia): 2600 ± 600 nM; GI50 (H460; NCI-H460, SRB assay, mean±SD of 2 experiments (FIG. 2), read-out: GI50 for H460): 8800 ± 2000 nM
CCCCCCCCCCc1ccc(S(=O)(=O)N[C@H](CC(=O)O)C[N+](C)(C)C)cc1 [Example S75, (R)-3-carboxy-2-(4-decylphenylsulfonamido)-N,N,N-trimethylpropan-1-aminium 2,2,2-trifluoroacetate] | – | 11000 | 2800 | 4100 | 18000 | 1500 | – | –
